Here are results for one molecule from ChEMBL document CHEMBL6115029, “Discovery of Daraxonrasib (RMC-6236), a Potent and Orally Bioavailable RAS(ON) Multi-selective, Noncovalent Tri-complex Inhibitor for the Treatment of Patients with Multiple RAS-Addicted Cancers” (J Med Chem, 2025).

A short description of series [1]: Genotoxicity in Salmonella typhimurium by Ames test. Particulars: salmonella enterica subsp. enterica serovar typhimurium. The format is toxicity. A general note: In the Ames test, an excess of revertant colonies over the control signals mutagenicity.
For series [2], the system named is PSN1. The series can be described thus: Cytotoxicity against human PSN1 cells harboring KRAS G12R mutant cultured as 2D cells assessed as inhibition of cell proliferation incubated for 120 hrs by CellTiter-Glo luminescence assay. It is filed as functional, cell-based. Background: ATP-based viability assays read luminescence as a measure of living cells.
In series [3] the test system is Mus musculus. The series can be described thus: In vivo inhibition of MAPK signaling pathway in female BALB/c nude mouse xenografted with human MIA PaCa-2 cells harboring KRAS G12C/G12C mutant assessed as reduction in DUSP6 mRNA level in tumor at 25 mg/kg, po administered as single dose and measured upto 48 hrs by qPCR analysis. It is filed as functional, organism-based.

Series [4] is described as follows: Tmax in male Sprague-Dawley rat at 60 mg/kg, po measured after 24 hrs by LC-MS/MS analysis. The note with it: in vivo. It is filed as ADME, organism-based.
For series [5], the system named is NCI-H441. The series can be described thus: Cytotoxicity against human NCI-H441 cells harboring KRAS G12V mutant cultured as 2D cells assessed as inhibition of cell proliferation incubated for 120 hrs by CellTiter-Glo luminescence assay. The format is functional, cell-based.
Series [6] in a line: Toxicity in female BALB/c nude mouse xenografted with human NCI-H441 cells harboring wildtype KRAS/KRAS G12V mutant assessed as effect on body weight at 25 mg/kg, po administered once daily for 28 days. The format is organism-based. The note with it: in vivo, 672 h, time 28 day.

Calls of active or inactive are those of the source. The rule behind the calls is not given here.

In the case of `CCn1c(-c2cc(N3CCN(C)CC3)cnc2[C@H](C)OC)c2c3cc(ccc31)-c1csc(n1)C[C@H](NC(=O)[C@H]1C[C@@H]1C)C(=O)N1CCC[C@H](N1)C(=O)OCC(C)(C)C2`, the Activity result in series [1] and in series [6] was “Non-toxic” throughout. For the same molecule, the outcome in series [2] and in series [5] was Active. The inhibition result in series [3] was “Active”. Also, the time to peak (Tmax) in series [4] came out at 4 h.

As a reminder, the Tmax is the time at which the peak concentration occurs.
